Holding throughout (format): biochemical
The target in one experiment is hCA I (Homo sapiens, UniProt P00915). The experiment is described as follows: stopped-flow CO2 hydrase assay, hCA I. The note with it: mean from 3 different assays, errors ±5–10%.
The next experiment addresses hCA II (Homo sapiens, UniProt P00918). Kind of experiment: stopped-flow CO2 hydrase assay, hCA II. The note with it: for Ki: mean from 3 different assays, errors ±5–10%.
The next experiment addresses hCA IX (Homo sapiens, UniProt Q16790). Kind of experiment: stopped-flow CO2 hydrase assay, hCA IX. Conditions: mean from 3 different assays, errors ±5–10%; read-out: KI hCAIX.
A further experiment has as its target T1, MgCA (Malassezia globosa, UniProt A8Q1N3).
T1 sequence (A8Q1N3 1-241): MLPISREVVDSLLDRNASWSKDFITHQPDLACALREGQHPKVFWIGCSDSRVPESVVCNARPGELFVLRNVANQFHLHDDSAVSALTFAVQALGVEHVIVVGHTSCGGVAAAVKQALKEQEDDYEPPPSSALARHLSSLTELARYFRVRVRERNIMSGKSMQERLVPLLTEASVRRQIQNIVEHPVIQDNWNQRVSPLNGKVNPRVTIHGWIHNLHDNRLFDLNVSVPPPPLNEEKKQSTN
The experiment is described as follows: stopped-flow CO2 hydrase assay, MgCA. Conditions: mean from 3 different assays, errors ±5–10%.

The next experiment has as its target T2, PgiCAβ (Porphyromonas gingivalis, UniProt B2RL07).
T2 sequence (B2RL07 19-242): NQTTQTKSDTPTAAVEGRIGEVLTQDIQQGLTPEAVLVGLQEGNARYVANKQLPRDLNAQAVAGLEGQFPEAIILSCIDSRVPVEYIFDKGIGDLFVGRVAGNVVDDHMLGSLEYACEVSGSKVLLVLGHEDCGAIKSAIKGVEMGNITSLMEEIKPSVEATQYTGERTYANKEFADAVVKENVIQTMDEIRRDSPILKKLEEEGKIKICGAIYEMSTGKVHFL
Kind of experiment: stopped-flow CO2 hydrase assay, PgiCAβ. Conditions: mean from 3 different assays, errors ±5–10%.

The next experiment addresses T3, PgiCAγ (Porphyromonas gingivalis, UniProt Q7MV79).
T3 sequence (Q7MV79 1-192): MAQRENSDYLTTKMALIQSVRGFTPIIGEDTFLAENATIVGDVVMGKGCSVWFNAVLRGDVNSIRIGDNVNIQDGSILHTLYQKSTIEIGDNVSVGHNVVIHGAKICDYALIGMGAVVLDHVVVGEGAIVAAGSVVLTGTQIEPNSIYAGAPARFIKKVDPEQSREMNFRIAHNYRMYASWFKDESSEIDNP
The experiment is described as follows: stopped-flow CO2 hydrase assay, PgiCAγ. The note with it: for Ki: mean from 3 different assays, errors ±5–10%.

The target in a further experiment is T4, SmuCA (Streptococcus mutans, UniProt Q8DVY1).
T4 sequence (Q8DVY1 1-166): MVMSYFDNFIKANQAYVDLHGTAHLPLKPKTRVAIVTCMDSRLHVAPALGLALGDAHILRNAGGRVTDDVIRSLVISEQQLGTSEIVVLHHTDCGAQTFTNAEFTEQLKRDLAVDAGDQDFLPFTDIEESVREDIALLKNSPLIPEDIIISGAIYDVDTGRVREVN
The experiment is described as follows: stopped-flow CO2 hydrase assay, SmuCA. The note with it: for Ki: mean from 3 different assays, errors ±5–10%.

For another experiment, the target named is BpsCAγ (Burkholderia pseudomallei, UniProt Q63SQ4). The note with it: read-out: KI BpsCAγ.
BpsCAγ, sequence (Q63SQ4 1-174): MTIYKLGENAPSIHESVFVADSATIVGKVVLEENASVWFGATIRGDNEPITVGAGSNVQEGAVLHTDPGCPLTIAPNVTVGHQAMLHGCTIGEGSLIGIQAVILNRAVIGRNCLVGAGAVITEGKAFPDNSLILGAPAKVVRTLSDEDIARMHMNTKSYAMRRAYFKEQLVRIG
The target of another experiment is CpsCAγ (Colwellia psychrerythraea, UniProt Q48AV3). Kind of experiment: biochemical.
CpsCAγ, sequence (Q48AV3 entry or part of it): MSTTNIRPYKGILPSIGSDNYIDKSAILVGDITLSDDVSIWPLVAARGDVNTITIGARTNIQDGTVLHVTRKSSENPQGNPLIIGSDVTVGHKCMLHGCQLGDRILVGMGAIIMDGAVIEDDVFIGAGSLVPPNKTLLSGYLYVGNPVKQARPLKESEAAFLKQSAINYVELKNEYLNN
Where [1] appears, read: mean from 3 different assays, errors ±5–10%, read-out: KI CpsCAγ.

Like-named read-outs stand apart in the source and are kept apart here.

hCA I, sequence (P00915 whole entry): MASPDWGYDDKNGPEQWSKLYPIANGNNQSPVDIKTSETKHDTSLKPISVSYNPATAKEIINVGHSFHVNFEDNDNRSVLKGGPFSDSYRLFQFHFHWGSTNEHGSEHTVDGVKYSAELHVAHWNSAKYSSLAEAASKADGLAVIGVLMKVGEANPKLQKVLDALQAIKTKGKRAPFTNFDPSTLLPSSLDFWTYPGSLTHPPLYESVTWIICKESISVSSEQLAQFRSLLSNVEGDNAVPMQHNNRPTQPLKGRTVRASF

As a reminder, the Ki is the equilibrium dissociation constant of an inhibitor or competing ligand from its target. For the compound `COc1cc(OC)c2c(c1Cl)OC1(C(=O)C=C(NCCS(N)(=O)=O)CC1C)C2=O` [Compound 1a, 2-(((2S,6′R)-7-chloro-4,6-dimethoxy-6′-methyl-2′,3-dioxo-3H-spiro[benzofuran-2,1′-cyclohexan]-3′-en-4′-yl)amino)ethane-1-sulfonamide], the Ki at hCA I was determined as 562 nM; at hCA II, 653 nM; on hCA IX, 31.2 nM; at MgCA it was 544 nM; at PgiCAβ it was 779 nM; at PgiCAγ it was 92.1 nM. Besides, the Ki was 1630 nM on SmuCA, 448 nM on BpsCAγ and 3150 nM on CpsCAγ. On PgiCAγ (PgiCAγ inhibition relative to PgiCAβ), the “SI towards PgiCAβ” value is reported as 8.5. Besides, the “fold more active than acetazolamide” value at PgiCAγ (against PgiCAγ) was 3.5 fold.
On to `COc1cc(OC)c2c(c1Cl)OC1(C(=O)C=C(Nc3ccc(S(N)(=O)=O)cc3)CC1C)C2=O` [Compound 1b, 4-(((2S,6′R)-7-chloro-4,6-dimethoxy-6′-methyl-2′,3-dioxo-3H-spiro[benzofuran-2,1′-cyclohexan]-3′-en-4′-yl)amino)benzenesulfonamide], for which the Ki on hCA I came to 234 nM; at hCA II, 64.4 nM; on hCA IX it was 203 nM; on MgCA, 476 nM; at PgiCAβ, 819 nM; at PgiCAγ it was 820 nM. For the same compound, the Ki at SmuCA worked out at 294 nM; on BpsCAγ, 945 nM; on CpsCAγ, 939 nM. On SmuCA (S. mutans CA inhibition relative to other bacterial CAs), the “SI towards all other bacterial strains” value came to 3.
`COc1cc(OC)c2c(c1Cl)OC1(C(=O)C=C(NCc3ccc(S(N)(=O)=O)cc3)CC1C)C2=O` [Compound 1c, 4-((((2S,6′R)-7-chloro-4,6-dimethoxy-6′-methyl-2′,3-dioxo-3H-spiro[benzofuran-2,1′-cyclohexan]-3′-en-4′-yl)amino)methyl)benzenesulfonamide]: the Ki was 74.6 nM at hCA I; 29.1 nM at hCA II; 102 nM on hCA IX; 568 nM at MgCA; 896 nM at PgiCAβ; 661 nM at PgiCAγ. Besides, the Ki was determined as 4000 nM on SmuCA, 833 nM at BpsCAγ and 900 nM at CpsCAγ.
As for `COc1cc(OC)c2c(c1Cl)OC1(C(=O)C=C(Nc3ccc(S(N)(=O)=O)cc3O)CC1C)C2=O` [Compound 1d, 4-(((2S,6′R)-7-chloro-4,6-dimethoxy-6′-methyl-2′,3-dioxo-3H-spiro[benzofuran-2,1′-cyclohexan]-3′-en-4′-yl)amino)-3-hydroxybenzenesulfonamide], the Ki at hCA I is 28.8 nM; at hCA II, 4.9 nM; on hCA IX, 29.4 nM; at MgCA, 1590 nM; on PgiCAβ, 1280 nM; on PgiCAγ, 584 nM. For the same compound, the results for the Ki at SmuCA, on BpsCAγ and on CpsCAγ were 897 nM, 878 nM and 591 nM, respectively. The “selectivity index (SI) towards hCA I” value on hCA II (hCA II inhibition relative to hCA I) came to 5.88. Besides, the “selectivity index (SI) towards hCA IX” value at hCA II (hCA II inhibition relative to hCA IX) is on record as 6.00.
Turning to `COc1cc(OC)c2c(c1Cl)O[C@@]1(C(=O)/C(=C\NCc3ccc(S(N)(=O)=O)cc3)C(=O)C[C@H]1C)C2=O` [Compound 1e], the Ki at hCA I turned out to be 320 nM; at hCA II it was 165 nM; at hCA IX it was 29.2 nM; on MgCA, 1830 nM; on PgiCAβ it was 940 nM; at PgiCAγ, 1270 nM. Further, the Ki at SmuCA stood at 1640 nM; on BpsCAγ it was 1060 nM; at CpsCAγ, 220 nM.
On to `COc1cc(OC)c2c(c1Cl)O[C@@]1(C(=O)C(=CNCCc3ccc(S(N)(=O)=O)cc3)C(=O)C[C@H]1C)C2=O` [Compound 1f, 4-(2-((((2R,2′R)-7-chloro-4,6-dimethoxy-2′-methyl-3,4′,6′-trioxo-3H-spiro[benzofuran-2,1′-cyclohexan]-5′-ylidene)methyl)amino)ethyl)benzenesulfonamide], for which the Ki on hCA I was determined as 348 nM; on hCA II, 70.8 nM; at hCA IX it was 30.6 nM; on MgCA, 4000 nM; at PgiCAβ, 8360 nM; at PgiCAγ, 602 nM. The Ki is 2470 nM on SmuCA, 2280 nM on BpsCAγ and 726 nM on CpsCAγ.
`COc1cc(C(CC(=O)NCCS(N)(=O)=O)C2C(=O)C[C@@H](C)[C@]3(Oc4c(Cl)c(OC)cc(OC)c4C3=O)C2=O)ccc1O` (stereo partly shown) [Compound 1g]: the Ki on hCA I was 2990 nM; on hCA II, 4050 nM; at hCA IX, 710 nM; at MgCA, 3150 nM; at PgiCAβ, 5590 nM; at PgiCAγ it was 2220 nM. Moreover, the results for the Ki at SmuCA, on BpsCAγ and at CpsCAγ (setting [1]) were 1220 nM, 2330 nM and 301 nM, respectively.
In the case of `COc1cc(OC)c2c(c1Cl)O[C@]1(C2=O)C(=O)C(C(CC(=O)NCc2ccc(S(N)(=O)=O)cc2)c2ccc(SC)cc2)C(=O)C[C@H]1C` (stereo partly shown) [Compound 1h], the inhibition constant Ki at hCA I is 41.1 nM; on hCA II, 7.5 nM; on hCA IX it was 73.7 nM; on MgCA, 4350 nM; on PgiCAβ it was 5750 nM; at PgiCAγ, 853 nM. Further, the values for the Ki on SmuCA, on BpsCAγ and on CpsCAγ (setting [1]) were 580 nM, 1400 nM and 625 nM, respectively.
As for `COc1cc(OC)c2c(c1Cl)O[C@]1(C2=O)C(=O)C(C(CC(=O)NCCc2ccc(S(N)(=O)=O)cc2)c2ccc(SC)cc2)C(=O)C[C@H]1C` (stereo partly drawn) [Compound 1i, 3-((2S,2′R)-7-chloro-4,6-dimethoxy-2′-methyl-3,4′,6′-trioxo-3H-spiro[benzofuran-2,1′-cyclohexan]-5′-yl)-3-(4-(methylthio)phenyl)-N-(4-sulfamoylphenethyl)propenamide], the Ki on hCA I is 15.3 nM; on hCA II, 8.1 nM; at hCA IX, 23.3 nM; at MgCA it was 1910 nM; at PgiCAβ it was 506 nM; at PgiCAγ, 854 nM. Besides, the Ki at SmuCA is 889 nM; on BpsCAγ it was 1040 nM; on CpsCAγ (setting [1]), 804 nM.
As for `COc1cc(OC)c2c(c1Cl)O[C@]1(C2=O)C(=O)C(C(CC(=O)NCC(=O)Nc2ccc(S(N)(=O)=O)cc2)c2ccc(SC)cc2)C(=O)C[C@H]1C` (stereo partly drawn) [Compound 1j, 3-((2S,2′R)-7-chloro-4,6-dimethoxy-2′-methyl-3,4′,6′-trioxo-3H-spiro[benzofuran-2,1′-cyclohexan]-5′-yl)-3-(4-(methylthio)phenyl)-N-(2-oxo-2-((4-sulfamoylphenyl)amino)ethyl)propenamide], the Ki on hCA I worked out at 27.7 nM; on hCA II it was 5.7 nM; at hCA IX, 22.5 nM; at MgCA it was 2050 nM; on PgiCAβ it was 3000 nM; on PgiCAγ, 2320 nM. Also, the results for the Ki on SmuCA, at BpsCAγ and at CpsCAγ (setting [1]) were 1230 nM, 710 nM and 177 nM, respectively. In addition, the “SI towards BpsCAγ” value on CpsCAγ (CpsCAγ inhibition relative to BpsCAγ) was 4. Also, the “SI towards PgiCAγ” value on CpsCAγ (CpsCAγ inhibition relative to PgiCAγ) amounted to 13. Moreover, the “SI towards S. mutans” value at CpsCAγ (CpsCAγ inhibition relative to S. mutans CA) came out at 6.9.
For `CC(=O)c1c(O)c(C)c(O)c2c1OC1=CC(=O)C(=C(C)Nc3cc(S(N)(=O)=O)ccc3O)C(=O)[C@@]12C` [Compound 4b, (R)-3-((1-(6-acetyl-7,9-dihydroxy-8,9b-dimethyl-1,3-dioxo-3,9b-dihydrodibenzo[b,d]furan-2(1H)-ylidene)ethyl)amino)-4-hydroxybenzenesulfonamide], the Ki at hCA II worked out at 755 nM; at hCA IX, 305 nM; on MgCA it was 2500 nM; at PgiCAβ, 766 nM; at PgiCAγ, 1840 nM; at SmuCA it was 1700 nM. The Ki on BpsCAγ was found to be 1000 nM; on CpsCAγ it was 809 nM.

(Values after article PMC9917406, “Synthesis, Biological and In Silico Studies of Griseofulvin and Usnic Acid Sulfonamide Derivatives as Fungal, Bacterial and Human Carbonic Anhydrase Inhibitors” (International Journal of Molecular Sciences, 2023).)
